In assay [1] the target is Histone-lysine N-methyltransferase EZH2 (Homo sapiens) (UniProt Q15910). The experiment in a line: Inhibition of EZH2 (unknown origin) at 100 uM by cell-based assay.
Assay [2] concerns the target T1, Histone-lysine N-methyltransferase SUV39H2 (Homo sapiens, UniProt Q9H5I1). Briefly: Inhibition of SUV39H2 (unknown origin) by HMT assay.
Assay [3] has as its target T2, Histone-lysine N-methyltransferase EHMT1 (Homo sapiens) (UniProt Q9H9B1).
T2 sequence (whole entry): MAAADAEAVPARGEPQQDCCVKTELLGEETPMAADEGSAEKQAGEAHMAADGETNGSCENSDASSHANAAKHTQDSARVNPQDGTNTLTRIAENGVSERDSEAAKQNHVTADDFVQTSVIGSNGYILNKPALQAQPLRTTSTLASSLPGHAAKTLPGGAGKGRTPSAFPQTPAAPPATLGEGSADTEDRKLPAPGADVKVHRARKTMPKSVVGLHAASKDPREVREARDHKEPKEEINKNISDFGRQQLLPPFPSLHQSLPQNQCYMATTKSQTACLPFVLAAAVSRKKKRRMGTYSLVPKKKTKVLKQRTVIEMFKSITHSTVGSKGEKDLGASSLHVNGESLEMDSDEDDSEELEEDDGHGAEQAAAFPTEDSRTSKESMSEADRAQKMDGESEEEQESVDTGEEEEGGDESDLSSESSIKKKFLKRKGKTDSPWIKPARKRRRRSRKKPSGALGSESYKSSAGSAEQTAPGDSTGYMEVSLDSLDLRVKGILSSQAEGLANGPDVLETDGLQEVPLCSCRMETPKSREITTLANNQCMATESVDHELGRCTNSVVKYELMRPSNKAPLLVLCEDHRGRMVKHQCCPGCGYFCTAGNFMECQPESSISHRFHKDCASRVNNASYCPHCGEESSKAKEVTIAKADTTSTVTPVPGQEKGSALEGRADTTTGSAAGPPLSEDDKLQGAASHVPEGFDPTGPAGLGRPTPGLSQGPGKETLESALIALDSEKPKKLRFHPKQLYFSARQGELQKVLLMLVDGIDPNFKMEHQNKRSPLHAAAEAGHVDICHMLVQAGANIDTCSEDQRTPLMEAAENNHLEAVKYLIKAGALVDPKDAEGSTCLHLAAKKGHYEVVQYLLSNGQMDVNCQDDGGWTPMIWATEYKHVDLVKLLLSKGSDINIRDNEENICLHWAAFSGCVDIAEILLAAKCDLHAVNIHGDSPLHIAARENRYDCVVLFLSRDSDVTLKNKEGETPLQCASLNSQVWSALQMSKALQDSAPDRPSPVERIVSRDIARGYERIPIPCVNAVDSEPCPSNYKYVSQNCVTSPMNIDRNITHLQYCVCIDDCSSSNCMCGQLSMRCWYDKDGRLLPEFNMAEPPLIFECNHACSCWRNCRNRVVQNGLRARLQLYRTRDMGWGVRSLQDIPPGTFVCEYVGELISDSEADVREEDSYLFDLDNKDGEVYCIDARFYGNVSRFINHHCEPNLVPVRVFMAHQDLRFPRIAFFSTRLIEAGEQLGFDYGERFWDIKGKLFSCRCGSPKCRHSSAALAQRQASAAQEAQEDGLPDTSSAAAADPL
The experiment in a line: Inhibition of EHMT1 (unknown origin) at 10 uM by HMT assay.

The target of assay [4] is T1, Histone-lysine N-methyltransferase SUV39H2. The experiment in a line: Inhibition of SUV39H2 (unknown origin) at 10 uM by HMT assay.
Assay [5] concerns the target T3, Histone-lysine N-methyltransferase SETD7 (Homo sapiens) (UniProt Q8WTS6).
T3 sequence (whole entry): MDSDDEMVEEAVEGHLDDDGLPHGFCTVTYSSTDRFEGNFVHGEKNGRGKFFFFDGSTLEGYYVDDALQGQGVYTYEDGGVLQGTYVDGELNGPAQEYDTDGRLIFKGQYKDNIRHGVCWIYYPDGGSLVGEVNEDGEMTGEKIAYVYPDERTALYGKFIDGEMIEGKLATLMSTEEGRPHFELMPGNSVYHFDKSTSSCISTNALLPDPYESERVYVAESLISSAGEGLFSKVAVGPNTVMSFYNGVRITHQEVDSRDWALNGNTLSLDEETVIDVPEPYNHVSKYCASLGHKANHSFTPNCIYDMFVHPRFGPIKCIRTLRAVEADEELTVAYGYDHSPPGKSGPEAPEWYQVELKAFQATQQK
Conditions: 10 uM.
Description: Inhibition of SETD7 (unknown origin) at 10 uM by HMT assay

The source made the active and inactive calls. The calls are words filed in the database; no cut-off is given here.

Consider 1 molecule from ChEMBL document CHEMBL3396964, “SAH derived potent and selective EZH2 inhibitors” (Bioorg Med Chem Lett, 2015).

T1 sequence (Q9H5I1 whole entry): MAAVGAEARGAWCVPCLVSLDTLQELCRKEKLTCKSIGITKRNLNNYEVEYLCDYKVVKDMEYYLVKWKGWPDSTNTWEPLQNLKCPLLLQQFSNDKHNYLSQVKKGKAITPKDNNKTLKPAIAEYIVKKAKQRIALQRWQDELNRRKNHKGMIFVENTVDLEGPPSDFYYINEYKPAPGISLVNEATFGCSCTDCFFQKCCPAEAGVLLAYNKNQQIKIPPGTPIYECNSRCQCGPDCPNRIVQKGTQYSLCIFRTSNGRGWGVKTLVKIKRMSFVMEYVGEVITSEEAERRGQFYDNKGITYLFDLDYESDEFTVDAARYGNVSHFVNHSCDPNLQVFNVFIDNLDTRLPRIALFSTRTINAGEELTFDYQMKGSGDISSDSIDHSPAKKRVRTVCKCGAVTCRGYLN
Histone-lysine N-methyltransferase EZH2 (Homo sapiens), sequence (Q15910 whole entry, looked up): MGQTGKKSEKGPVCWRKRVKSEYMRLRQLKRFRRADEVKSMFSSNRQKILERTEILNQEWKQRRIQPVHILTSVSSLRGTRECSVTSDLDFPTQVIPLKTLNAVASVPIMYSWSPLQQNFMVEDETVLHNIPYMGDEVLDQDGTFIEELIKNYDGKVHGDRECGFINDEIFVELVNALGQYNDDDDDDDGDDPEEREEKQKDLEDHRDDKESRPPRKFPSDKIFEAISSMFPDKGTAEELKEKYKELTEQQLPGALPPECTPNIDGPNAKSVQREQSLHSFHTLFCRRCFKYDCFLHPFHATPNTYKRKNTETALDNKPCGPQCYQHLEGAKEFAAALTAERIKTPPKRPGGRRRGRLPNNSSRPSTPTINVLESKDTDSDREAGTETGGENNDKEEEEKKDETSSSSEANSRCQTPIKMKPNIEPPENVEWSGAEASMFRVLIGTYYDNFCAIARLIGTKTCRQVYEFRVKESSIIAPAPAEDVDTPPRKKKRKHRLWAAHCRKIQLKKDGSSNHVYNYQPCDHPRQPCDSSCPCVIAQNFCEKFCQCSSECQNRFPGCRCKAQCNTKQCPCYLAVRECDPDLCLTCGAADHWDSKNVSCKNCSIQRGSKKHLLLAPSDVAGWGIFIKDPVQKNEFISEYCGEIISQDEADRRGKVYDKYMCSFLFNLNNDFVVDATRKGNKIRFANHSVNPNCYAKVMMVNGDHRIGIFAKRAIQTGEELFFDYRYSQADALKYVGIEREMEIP

Regarding `Nc1ncnc2c1ncn2[C@@H]1O[C@H](CSCC[C@H](N)C(=O)NCc2cc(-c3ccccc3)[nH]n2)[C@@H](O)[C@H]1O`, the inhibition result in assay [1] and in assay [5] was “inactive” in each case. This molecule also displayed an IC50 in assay [2] of more than 100 µM. Further, the inhibition was found to be 24% in assay [3] and 20% in assay [4].

In general, inhibition refers to the percentage by which the read-out fell short of the control. In general, IC50 refers to the concentration that inhibits the measured activity by half. A high value points to a need for much substance.
